According to PubChem BioAssay (NCI):
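All cell lines were grown in 96-well plates and treated with compound for 48 hours. GI50 = concentration required for 50% inhibition of growth. At the TGI there is no net growth.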

Assays:
Experiment in all cases: DTP human tumour cell line panel, 48 h
IGROV1 ovarian = test system: IGROV1 ovarian
PC-3 prostate = test system: PC-3 prostate
M14 melanoma = test system: M14 melanoma
SW-620 colon = test system: SW-620 colon
SK-MEL-5 melanoma = test system: SK-MEL-5 melanoma
OVCAR-8 ovarian = test system: OVCAR-8 ovarian
A498 renal = test system: A498 renal
CAKI-1 renal = test system: CAKI-1 renal
MALME-3M melanoma = test system: MALME-3M melanoma
TK-10 renal = test system: TK-10 renal
SF-295 CNS = test system: SF-295 CNS
KM12 colon = test system: KM12 colon
ACHN renal = test system: ACHN renal
MDA-MB-231 breast = test system: MDA-MB-231 breast
T-47D breast = test system: T-47D breast
EKVX NSCLC = test system: EKVX NSCLC
UO-31 renal = test system: UO-31 renal
CCRF-CEM leukemia = test system: CCRF-CEM leukemia
SF-268 CNS = test system: SF-268 CNS
SN12C renal = test system: SN12C renal
A549 NSCLC = test system: A549 NSCLC
SR leukemia = test system: SR leukemia
HS 578T breast = test system: HS 578T breast
NCI/ADR-RES ovarian = test system: NCI/ADR-RES ovarian
SF-539 CNS = test system: SF-539 CNS
HT29 colon = test system: HT29 colon
U251 CNS = test system: U251 CNS
NCI-H23 lung = test system: NCI-H23 lung
RXF 393 renal = test system: RXF 393 renal
OVCAR-4 ovarian = test system: OVCAR-4 ovarian
NCI-H460 lung = test system: NCI-H460 lung
NCI-H226 lung = test system: NCI-H226 lung
HCT-15 colon = test system: HCT-15 colon
RPMI-8226 leukemia = test system: RPMI-8226 leukemia
786-0 renal = test system: 786-0 renal
HCT-116 colon = test system: HCT-116 colon
MDA-MB-435 = test system: MDA-MB-435
HOP-62 NSCLC = test system: HOP-62 NSCLC
K-562 leukemia = test system: K-562 leukemia
BT-549 breast = test system: BT-549 breast
UACC-62 melanoma = test system: UACC-62 melanoma
OVCAR-5 ovarian = test system: OVCAR-5 ovarian
SK-OV-3 ovarian = test system: SK-OV-3 ovarian
HCC-2998 colon = test system: HCC-2998 colon
SK-MEL-28 melanoma = test system: SK-MEL-28 melanoma
UACC-257 melanoma = test system: UACC-257 melanoma
SNB-75 CNS = test system: SNB-75 CNS
SK-MEL-2 melanoma = test system: SK-MEL-2 melanoma
NCI-H522 lung = test system: NCI-H522 lung
DU-145 prostate = test system: DU-145 prostate
HOP-92 NSCLC = test system: HOP-92 NSCLC
SNB-19 CNS = test system: SNB-19 CNS
MCF7 breast = test system: MCF7 breast
COLO 205 colon = test system: COLO 205 colon
HL-60(TB) leukemia = test system: HL-60(TB) leukemia
LOX IMVI melanoma = test system: LOX IMVI melanoma
MOLT-4 leukemia = test system: MOLT-4 leukemia
OVCAR-3 ovarian = test system: OVCAR-3 ovarian

SMILES: Cc1nc2sc(C(=O)Nc3cccc(Cl)c3C)c(N)c2cc1C(=O)c1ccccc1
- GI50 (IGROV1 ovarian): 419 nM
- TGI (IGROV1 ovarian): > 50000 nM
- GI50 (PC-3 prostate): 258 nM
- TGI (PC-3 prostate): > 50000 nM
- GI50 (M14 melanoma): 214 nM
- TGI (M14 melanoma): > 50000 nM
- GI50 (SW-620 colon): 209 nM
- TGI (SW-620 colon): > 50000 nM
- GI50 (SK-MEL-5 melanoma): 278 nM
- TGI (SK-MEL-5 melanoma): 6130 nM
- GI50 (OVCAR-8 ovarian): 403 nM
- TGI (OVCAR-8 ovarian): > 50000 nM
- GI50 (A498 renal): 124 nM
- TGI (A498 renal): 1640 nM
- GI50 (CAKI-1 renal): 214 nM
- TGI (CAKI-1 renal): > 50000 nM
- GI50 (MALME-3M melanoma): 811 nM
- TGI (MALME-3M melanoma): > 50000 nM
- GI50 (TK-10 renal): 2480 nM
- TGI (TK-10 renal): > 50000 nM
- GI50 (SF-295 CNS): 179 nM
- TGI (SF-295 CNS): > 10600 nM
- GI50 (KM12 colon): 225 nM
- TGI (KM12 colon): > 50000 nM
- GI50 (ACHN renal): 344 nM
- TGI (ACHN renal): > 50000 nM
- GI50 (MDA-MB-231 breast): 463 nM
- TGI (MDA-MB-231 breast): > 50000 nM
- GI50 (T-47D breast): 245 nM
- TGI (T-47D breast): > 50000 nM
- GI50 (EKVX NSCLC): 292 nM
- TGI (EKVX NSCLC): > 50000 nM
- GI50 (UO-31 renal): 408 nM
- TGI (UO-31 renal): > 50000 nM
- GI50 (CCRF-CEM leukemia): 180 nM
- TGI (CCRF-CEM leukemia): > 50000 nM
- GI50 (SF-268 CNS): 375 nM
- TGI (SF-268 CNS): > 50000 nM
- GI50 (SN12C renal): 568 nM
- TGI (SN12C renal): > 50000 nM
- GI50 (A549 NSCLC): 245 nM
- TGI (A549 NSCLC): > 50000 nM
- GI50 (SR leukemia): 131 nM
- TGI (SR leukemia): 16900 nM
- GI50 (HS 578T breast): 194 nM
- TGI (HS 578T breast): > 50000 nM
- GI50 (NCI/ADR-RES ovarian): 192 nM
- GI50 (SF-539 CNS): 159 nM
- TGI (SF-539 CNS): 915 nM
- GI50 (HT29 colon): 202 nM
- TGI (HT29 colon): > 17900 nM
- GI50 (U251 CNS): 219 nM
- TGI (U251 CNS): > 50000 nM
- GI50 (NCI-H23 lung): 1140 nM
- TGI (NCI-H23 lung): > 50000 nM
- GI50 (RXF 393 renal): 198 nM
- GI50 (OVCAR-4 ovarian): 1080 nM
- TGI (OVCAR-4 ovarian): > 50000 nM
- GI50 (NCI-H460 lung): 198 nM
- TGI (NCI-H460 lung): 10300 nM
- GI50 (NCI-H226 lung): 1280 nM
- TGI (NCI-H226 lung): > 50000 nM
- GI50 (HCT-15 colon): 226 nM
- TGI (HCT-15 colon): > 50000 nM
- GI50 (RPMI-8226 leukemia): 249 nM
- TGI (RPMI-8226 leukemia): > 15900 nM
- GI50 (786-0 renal): 296 nM
- TGI (786-0 renal): > 50000 nM
- GI50 (HCT-116 colon): 220 nM
- TGI (HCT-116 colon): > 50000 nM
- GI50 (MDA-MB-435): 98.8 nM
- TGI (MDA-MB-435): 257 nM
- GI50 (HOP-62 NSCLC): 296 nM
- TGI (HOP-62 NSCLC): > 50000 nM
- GI50 (K-562 leukemia): 199 nM
- TGI (K-562 leukemia): > 50000 nM
- GI50 (BT-549 breast): 355 nM
- TGI (BT-549 breast): > 13600 nM
- GI50 (UACC-62 melanoma): 246 nM
- TGI (UACC-62 melanoma): > 50000 nM
- GI50 (OVCAR-5 ovarian): 1260 nM
- TGI (OVCAR-5 ovarian): > 50000 nM
- GI50 (SK-OV-3 ovarian): 229 nM
- TGI (SK-OV-3 ovarian): > 50000 nM
- GI50 (HCC-2998 colon): 1010 nM
- TGI (HCC-2998 colon): > 50000 nM
- GI50 (SK-MEL-28 melanoma): 1450 nM
- TGI (SK-MEL-28 melanoma): > 50000 nM
- GI50 (UACC-257 melanoma): 14600 nM
- TGI (UACC-257 melanoma): > 50000 nM
- GI50 (SNB-75 CNS): 121 nM
- GI50 (SK-MEL-2 melanoma): 329 nM
- TGI (SK-MEL-2 melanoma): > 50000 nM
- GI50 (NCI-H522 lung): 205 nM
- GI50 (DU-145 prostate): 524 nM
- TGI (DU-145 prostate): > 50000 nM
- GI50 (HOP-92 NSCLC): 259 nM
- TGI (HOP-92 NSCLC): > 23700 nM
- GI50 (SNB-19 CNS): 222 nM
- TGI (SNB-19 CNS): > 50000 nM
- GI50 (MCF7 breast): 168 nM
- TGI (MCF7 breast): > 50000 nM
- GI50 (COLO 205 colon): 293 nM
- TGI (COLO 205 colon): 5020 nM
- GI50 (HL-60(TB) leukemia): 147 nM
- GI50 (LOX IMVI melanoma): 331 nM
- TGI (LOX IMVI melanoma): > 50000 nM
- GI50 (MOLT-4 leukemia): 254 nM
- TGI (MOLT-4 leukemia): > 50000 nM
- GI50 (OVCAR-3 ovarian): 176 nM
- TGI (OVCAR-3 ovarian): 1370 nM
